{
  "source": "paper PMC12446468",
  "about": "“Anti-inflammatory and cytotoxic assessment of flavonoids isolated from Viola odorata flowers with computer-guided docking study” (Scientific Reports, 2025)",
  "key": {"[1]": {"system": "human colonic epithelial cells (Caco-2)", "experiment": "MTT cytotoxicity assay, Caco-2", "assay_type": "cell-based", "conditions": "for % Cell viability / % Cytotoxicity: 48 h", "description": "(§1) The assessment of cytotoxicity for the methanolic extract and isolated flavonoids was performed under controlled and sterile conditions within a Class II A2 Laminar flow biosafety cabinet. The carcinoma cell lines used in this study was obtained from Nawah Scientific Inc. (Cairo, Egypt). The cells were cultured in Dulbecco’s Modified Eagle’s Medium, enriched with 10% heat-inactivated fetal bovine serum, 100 U/ml penicillin, and 100 μg/ml streptomycin sulfate, maintained at […] in humidified incubators with 5% CO2. Upon reaching approximately 80% confluence, the cells were subcultured using a trypsin–EDTA solution. Harvesting occurred during the logarithmic growth phase. The methanolic extract and isolated flavonoids were dissolved in DMSO and stored at − 20 °C. For each experimental trial, the stock solutions were mixed with the culture medium to obtain the required final concentrations.\n(§2) The effectiveness of the extract was compared to that of the reference drug, Doxorubicin. The percentage of cell viability was calculated by taking the ratio of the absorbance of the plant extract to that of the control, multiplied by 100. Furthermore, the IC50 value of the plant extract was determined using Sigma Plot software version 11 (Spw.exe) (https://sigmaplot.software.informer.com/11.0/)."}, "COX-2": {"target": "T1, COX-2 (Homo sapiens, UniProt P35354)", "T1 construct": "purchased Cayman 560131", "T1 sequence (P35354 18-604)": "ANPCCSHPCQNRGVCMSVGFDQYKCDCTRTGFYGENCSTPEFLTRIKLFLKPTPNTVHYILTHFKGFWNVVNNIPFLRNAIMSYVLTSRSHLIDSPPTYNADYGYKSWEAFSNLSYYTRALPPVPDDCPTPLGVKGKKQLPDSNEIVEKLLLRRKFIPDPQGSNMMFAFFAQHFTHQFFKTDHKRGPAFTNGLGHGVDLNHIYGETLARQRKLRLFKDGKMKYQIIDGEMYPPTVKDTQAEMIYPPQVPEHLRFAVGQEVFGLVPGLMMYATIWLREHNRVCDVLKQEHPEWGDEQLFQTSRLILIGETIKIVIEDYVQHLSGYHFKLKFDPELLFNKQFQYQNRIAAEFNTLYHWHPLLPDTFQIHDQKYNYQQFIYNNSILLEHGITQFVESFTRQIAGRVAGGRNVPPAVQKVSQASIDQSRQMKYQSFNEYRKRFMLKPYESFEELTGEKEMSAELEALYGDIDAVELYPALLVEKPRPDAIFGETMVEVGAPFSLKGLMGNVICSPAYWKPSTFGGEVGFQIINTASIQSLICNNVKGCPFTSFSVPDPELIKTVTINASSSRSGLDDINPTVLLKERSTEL", "experiment": "COX-2 inhibition assay (Cayman COX kit)", "assay_type": "biochemical, ovine/human", "source_text": "(§3) The requirements for High-Performance Liquid Chromatography (HPLC) and all compounds tested were of the utmost analytical purity. […] COX-1 and COX-2 (ovine/human), as well as the 5-LOX enzyme (human recombinant) were obtained from Sigma-Aldrich. Dulbecco’s Modified Eagle’s Medium (DMEM), along with penicillin/streptomycin and L-glutamine, were acquired from Gibco BRL, California, USA. Fetal bovine serum (FBS) and 3-(4, 5-dimethylthiazol-2-yl)-2, 5-[…] (MTT) were supplied by Sigma-Aldrich, St. Louis, Missouri, USA.\n(§4) The methanolic extract of V. odorata flowers and isolated flavonoids were subjected to an in vitro anti-inflammatory assessment by inhibiting two isoenzymes, cyclooxygenase COX-1 and COX-2 (ovine/human), as well as the 5-LOX enzyme (human recombinant)."}, "[2]": {"system": "human colorectal carcinoma cells (HTC-116)", "experiment": "MTT cytotoxicity assay, HTC-116", "assay_type": "cell-based", "conditions": "for % Cell viability / % Cytotoxicity: 48 h", "description": "as §1, §2"}, "COX-1": {"target": "T2, COX-1 (Ovis aries, UniProt P05979)", "T2 construct": "purchased Cayman 560131", "T2 sequence (P05979 25-600)": "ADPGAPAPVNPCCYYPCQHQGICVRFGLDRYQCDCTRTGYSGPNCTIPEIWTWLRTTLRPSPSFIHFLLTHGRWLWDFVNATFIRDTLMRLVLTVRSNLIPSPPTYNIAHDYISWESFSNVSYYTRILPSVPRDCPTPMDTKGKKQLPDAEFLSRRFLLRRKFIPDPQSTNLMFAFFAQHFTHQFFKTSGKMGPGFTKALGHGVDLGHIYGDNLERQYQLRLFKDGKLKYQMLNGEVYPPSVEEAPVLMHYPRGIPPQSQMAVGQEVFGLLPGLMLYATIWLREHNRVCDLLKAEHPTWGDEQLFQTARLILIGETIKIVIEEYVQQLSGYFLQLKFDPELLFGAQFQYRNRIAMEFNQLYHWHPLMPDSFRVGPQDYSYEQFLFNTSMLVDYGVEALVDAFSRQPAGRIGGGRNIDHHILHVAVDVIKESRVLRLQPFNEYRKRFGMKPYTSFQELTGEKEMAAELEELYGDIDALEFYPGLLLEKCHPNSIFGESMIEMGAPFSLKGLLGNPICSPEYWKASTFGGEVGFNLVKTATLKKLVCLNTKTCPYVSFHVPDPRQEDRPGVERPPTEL", "experiment": "COX-1 inhibition assay (Cayman COX kit)", "assay_type": "biochemical, ovine/human", "conditions": "mean ± SE, n = 3", "source_text": "as §3, §4"}, "[3]": {"system": "hepatocellular carcinoma (HepG2)", "experiment": "MTT cytotoxicity assay, HepG2", "assay_type": "cell-based, human", "conditions": "for % Cell viability / % Cytotoxicity: 48 h", "description": "as §1, §2"}, "[4]": {"target": "T3, 5-LOX enzyme (human recombinant) (Homo sapiens, UniProt P09917)", "T3 construct": "purchased Sigma-Aldrich 437996", "T3 sequence (P09917 1-674)": "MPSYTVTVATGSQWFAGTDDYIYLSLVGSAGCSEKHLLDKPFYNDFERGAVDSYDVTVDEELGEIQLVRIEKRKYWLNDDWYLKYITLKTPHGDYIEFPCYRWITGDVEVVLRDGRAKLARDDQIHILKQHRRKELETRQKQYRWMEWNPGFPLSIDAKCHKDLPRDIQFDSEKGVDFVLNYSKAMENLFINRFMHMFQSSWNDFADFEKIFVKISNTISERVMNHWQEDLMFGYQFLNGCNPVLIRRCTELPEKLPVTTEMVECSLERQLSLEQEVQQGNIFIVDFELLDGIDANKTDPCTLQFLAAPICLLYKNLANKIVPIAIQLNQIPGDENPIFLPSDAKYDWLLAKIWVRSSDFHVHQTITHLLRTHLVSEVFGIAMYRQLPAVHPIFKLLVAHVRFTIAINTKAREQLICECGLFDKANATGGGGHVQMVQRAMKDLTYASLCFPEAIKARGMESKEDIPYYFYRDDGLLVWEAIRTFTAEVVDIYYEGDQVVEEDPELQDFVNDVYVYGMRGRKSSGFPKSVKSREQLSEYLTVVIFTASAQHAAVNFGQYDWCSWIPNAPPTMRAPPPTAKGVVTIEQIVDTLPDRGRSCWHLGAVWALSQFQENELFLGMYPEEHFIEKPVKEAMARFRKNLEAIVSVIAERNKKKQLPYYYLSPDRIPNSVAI", "experiment": "5-lipoxygenase inhibition assay (5-LOX kit)", "assay_type": "biochemical", "conditions": "mean ± SE, n = 3", "source_text": "as §3, §4"}},
  "note": "Marks after values point to notes of the source that are not given here.",
  "data": [
    {"compound": "O=c1cc(-c2ccc(O)c(O)c2)oc2cc(O[C@@H]3O[C@H](CO)[C@@H](O)[C@H](O)[C@H]3O)cc(O)c12", "note": "[Luteolin 7-O-glucoside, luteolin 7-O-glucoside]", "values": [
      {"measurement": "% Cell viability", "setting": "[1]; Caco-2, 6.25 ug/ml", "result": 70.32, "unit": "%"},
      {"measurement": "% Cytotoxicity", "setting": "[1]; Caco-2, 6.25 ug/ml", "result": 29.68, "unit": "%"},
      {"measurement": "% Cell viability", "setting": "[1]; Caco-2, 12.5 ug/ml", "result": 60.35, "unit": "%"},
      {"measurement": "% Cytotoxicity", "setting": "[1]; Caco-2, 12.5 ug/ml", "result": 39.65, "unit": "%"},
      {"measurement": "% Cell viability", "setting": "[1]; Caco-2, 25 ug/ml", "result": 49.22, "unit": "%"},
      {"measurement": "% Cytotoxicity", "setting": "[1]; Caco-2, 25 ug/ml", "result": 50.78, "unit": "%"},
      {"measurement": "% Cell viability", "setting": "[1]; Caco-2, 50 ug/ml", "result": 31.01, "unit": "%"},
      {"measurement": "% Cytotoxicity", "setting": "[1]; Caco-2, 50 ug/ml", "result": 68.99, "unit": "%"},
      {"measurement": "% Cell viability", "setting": "[1]; Caco-2, 100 ug/ml", "result": 10.63, "unit": "%"},
      {"measurement": "% Cytotoxicity", "setting": "[1]; Caco-2, 100 ug/ml", "result": 89.37, "unit": "%"},
      {"measurement": "IC50", "setting": "[1]; Caco-2, 48 h", "result": "29.42^c ug/ml"},
      {"measurement": "IC50 values COX-2", "setting": "COX-2; mean ± SE, n = 3", "result": "1.305 ± 0.14^b ug/ml"},
      {"measurement": "Selectivity Index (COX-1/COX-2)", "setting": "COX-2; ratio of IC50 COX-1 to IC50 COX-2", "result": 0.75},
      {"measurement": "% Cell viability", "setting": "[2]; HTC-116, 6.25 ug/ml", "result": 69.86, "unit": "%"},
      {"measurement": "% Cytotoxicity", "setting": "[2]; HTC-116, 6.25 ug/ml", "result": 30.14, "unit": "%"},
      {"measurement": "% Cell viability", "setting": "[2]; HTC-116, 12.5 ug/ml", "result": 59.38, "unit": "%"},
      {"measurement": "% Cytotoxicity", "setting": "[2]; HTC-116, 12.5 ug/ml", "result": 40.62, "unit": "%"},
      {"measurement": "% Cell viability", "setting": "[2]; HTC-116, 25 ug/ml", "result": 49.17, "unit": "%"},
      {"measurement": "% Cytotoxicity", "setting": "[2]; HTC-116, 25 ug/ml", "result": 50.83, "unit": "%"},
      {"measurement": "% Cell viability", "setting": "[2]; HTC-116, 50 ug/ml", "result": 34.03, "unit": "%"},
      {"measurement": "% Cytotoxicity", "setting": "[2]; HTC-116, 50 ug/ml", "result": 65.97, "unit": "%"},
      {"measurement": "% Cell viability", "setting": "[2]; HTC-116, 100 ug/ml", "result": 13.01, "unit": "%"},
      {"measurement": "% Cytotoxicity", "setting": "[2]; HTC-116, 100 ug/ml", "result": 86.99, "unit": "%"},
      {"measurement": "IC50", "setting": "[2]; HTC-116, 48 h", "result": "30.17^c ug/ml"},
      {"measurement": "IC50 values COX-1", "setting": "COX-1", "result": "0.982 ± 0.09^c ug/ml"},
      {"measurement": "% Cell viability", "setting": "[3]; HepG2, 6.25 ug/ml", "result": 70.35, "unit": "%"},
      {"measurement": "% Cytotoxicity", "setting": "[3]; HepG2, 6.25 ug/ml", "result": 29.65, "unit": "%"},
      {"measurement": "% Cell viability", "setting": "[3]; HepG2, 12.5 ug/ml", "result": 63.99, "unit": "%"},
      {"measurement": "% Cytotoxicity", "setting": "[3]; HepG2, 12.5 ug/ml", "result": 36.01, "unit": "%"},
      {"measurement": "% Cell viability", "setting": "[3]; HepG2, 25 ug/ml", "result": 42.58, "unit": "%"},
      {"measurement": "% Cytotoxicity", "setting": "[3]; HepG2, 25 ug/ml", "result": 57.42, "unit": "%"},
      {"measurement": "% Cell viability", "setting": "[3]; HepG2, 50 ug/ml", "result": 28.52, "unit": "%"},
      {"measurement": "% Cytotoxicity", "setting": "[3]; HepG2, 50 ug/ml", "result": 71.48, "unit": "%"},
      {"measurement": "% Cell viability", "setting": "[3]; HepG2, 100 ug/ml", "result": 14.11, "unit": "%"},
      {"measurement": "% Cytotoxicity", "setting": "[3]; HepG2, 100 ug/ml", "result": 85.89, "unit": "%"},
      {"measurement": "IC50", "setting": "[3]; HepG2, 48 h", "result": "28.23^c ug/ml"},
      {"measurement": "IC50 values 5-LOX", "setting": "[4]", "result": "0.915 ± 0.21^ab ug/ml"}
    ]}
  ]
}
